≈ marks a conversion by molar mass, not a printed value. Like-named read-outs stand apart in the source and are kept apart here.
What was measured:
Format in all cases: cell-based
[1] = system: E. coli KA797 cells carrying pUK21 with CTX-M-14 WT (Tat); assay: microbe, parasite or virus in culture; settings: Escherichia coli, antibiotic alone
[2] = system: E. coli KA797 cells carrying pUK21 with KPC-2 (Tat); assay: microbe, parasite or virus in culture; settings: Escherichia coli, antibiotic alone
[3] = system: E. coli KA797 cells carrying KPC-2 position 105 library; settings: selection with labelled antibiotic
[4] = system: E. coli KA797 cells carrying TEM-1 position 105 library; settings: for Fi MEM AVG: average of replicates
[5] = KPC-2 AA 105 = Trp (WT, reference)

## C[C@@H](O)[C@H]1C(=O)N2C(C(=O)O)=C(S[C@@H]3CN[C@H](C(=O)N(C)C)C3)[C@H](C)[C@H]12 [meropenem]
[1]
  MIC: 0.1 µg/mL (≈ 0.261 µM)
[2]
  MIC: 0.4 µg/mL (≈ 1.04 µM)
[3]; KPC-2 AA 105 = Ala
  Fi (relative fitness), Replicate 1: 0.581
  Fi AVG (average fitness of replicates): 0.217
[3]; KPC-2 AA 105 = Arg
  Fi (relative fitness), Replicate 1: 0.240
  Fi AVG (average fitness of replicates): 0.280
  Significance of average fitness: +
[3]; KPC-2 AA 105 = Asn
  Fi (relative fitness), Replicate 1: 0.449
  Fi AVG (average fitness of replicates): 0.201
[3]; KPC-2 AA 105 = Asp
  Fi (relative fitness), Replicate 1: -0.690
  Fi AVG (average fitness of replicates): -0.489
[3]; KPC-2 AA 105 = Cys
  Fi (relative fitness), Replicate 1: -0.271
  Fi AVG (average fitness of replicates): -0.750
  Significance of average fitness: -
[3]; KPC-2 AA 105 = Gln
  Fi (relative fitness), Replicate 1: -0.624
  Fi AVG (average fitness of replicates): -1.307
  Significance of average fitness: -
[3]; KPC-2 AA 105 = Glu
  Fi (relative fitness), Replicate 1: -0.509
  Fi AVG (average fitness of replicates): -0.226
[3]; KPC-2 AA 105 = Gly
  Fi AVG (average fitness of replicates): -0.037
[3]; KPC-2 AA 105 = His
  Fi (relative fitness), Replicate 1: -1.077
  Fi AVG (average fitness of replicates): -0.525
[3]; KPC-2 AA 105 = Ile
  Fi (relative fitness), Replicate 1: 0.107
  Fi AVG (average fitness of replicates): 0.391
  Significance of average fitness: +
[3]; KPC-2 AA 105 = Leu
  Fi (relative fitness), Replicate 1: -0.731
  Fi AVG (average fitness of replicates): -0.210
[3]; KPC-2 AA 105 = Lys
  Fi (relative fitness), Replicate 1: 0.268
  Fi AVG (average fitness of replicates): -0.089
[3]; KPC-2 AA 105 = Met
  Fi (relative fitness), Replicate 1: -1.083
  Fi AVG (average fitness of replicates): -0.791
[3]; KPC-2 AA 105 = Phe
  Fi (relative fitness), Replicate 1: -0.159
  Fi AVG (average fitness of replicates): 0.248
[3]; KPC-2 AA 105 = Pro
  Fi (relative fitness), Replicate 1: -0.148
  Fi AVG (average fitness of replicates): -1.195
  Significance of average fitness: -
[3]; KPC-2 AA 105 = Ser
  Fi (relative fitness), Replicate 1: 0.279
  Fi AVG (average fitness of replicates): -0.239
[3]; KPC-2 AA 105 = Thr
  Fi AVG (average fitness of replicates): -0.051
[3]; [5]
  Fi (relative fitness), Replicate 1: 0.000
  Fi AVG (average fitness of replicates): 0.000
[3]; KPC-2 AA 105 = Tyr
  Fi (relative fitness), Replicate 1: 0.109
  Fi AVG (average fitness of replicates): -0.474
[3]; KPC-2 AA 105 = Val
  Fi (relative fitness), Replicate 1: -1.754
  Fi AVG (average fitness of replicates): -0.973
[3]; KPC-2 WT (Trp 105), replicate 1
  WT abs Fi 1 (absolute fitness): 0.081
[3]; KPC-2 WT (Trp 105), replicate 2
  WT abs Fi 2 (absolute fitness): -0.069
[3]; KPC-2 WT (Trp 105), replicate 3
  WT abs Fi 3 (absolute fitness): 0.298
[4]; AA 105 Ala
  Fi MEM AVG: 0.062
[4]; AA 105 Ala, replicate 1
  Fi MEM 1: 0.046
[4]; AA 105 Ala, replicate 2
  Fi MEM 2: 0.488
[4]; AA 105 Ala, replicate 3
  Fi MEM 3: -0.350
[4]; AA 105 Arg
  Fi MEM AVG: 0.048
[4]; AA 105 Arg, replicate 1
  Fi MEM 1: 0.163
[4]; AA 105 Arg, replicate 2
  Fi MEM 2: 0.269
[4]; AA 105 Arg, replicate 3
  Fi MEM 3: -0.287
[4]; AA 105 Asn
  Fi MEM AVG: -0.031
[4]; AA 105 Asn, replicate 1
  Fi MEM 1: -0.022
[4]; AA 105 Asn, replicate 2
  Fi MEM 2: 0.493
[4]; AA 105 Asn, replicate 3
  Fi MEM 3: -0.563
[4]; AA 105 Asp
  Fi MEM AVG: -0.366
[4]; AA 105 Asp, replicate 1
  Fi MEM 1: -1.030
[4]; AA 105 Asp, replicate 2
  Fi MEM 2: 0.356
[4]; AA 105 Asp, replicate 3
  Fi MEM 3: -0.424
[4]; AA 105 Cys
  Fi MEM AVG: 0.031
[4]; AA 105 Cys, replicate 1
  Fi MEM 1: 0.333
[4]; AA 105 Cys, replicate 2
  Fi MEM 2: 0.230
[4]; AA 105 Cys, replicate 3
  Fi MEM 3: -0.470
[4]; AA 105 Gln
  Fi MEM AVG: -0.069
[4]; AA 105 Gln, replicate 1
  Fi MEM 1: -0.210
[4]; AA 105 Gln, replicate 2
  Fi MEM 2: 0.084
[4]; AA 105 Gln, replicate 3
  Fi MEM 3: -0.080
[4]; AA 105 Glu
  Fi MEM AVG: -0.063
[4]; AA 105 Glu, replicate 1
  Fi MEM 1: -0.084
[4]; AA 105 Glu, replicate 2
  Fi MEM 2: 0.140
[4]; AA 105 Glu, replicate 3
  Fi MEM 3: -0.245
[4]; AA 105 Gly
  Fi MEM AVG: -0.130
[4]; AA 105 Gly, replicate 1
  Fi MEM 1: -0.195
[4]; AA 105 Gly, replicate 2
  Fi MEM 2: 0.032
[4]; AA 105 Gly, replicate 3
  Fi MEM 3: -0.226
[4]; AA 105 His
  Fi MEM AVG: -0.172
[4]; AA 105 His, replicate 1
  Fi MEM 1: -0.391
[4]; AA 105 His, replicate 2
  Fi MEM 2: 0.351
[4]; AA 105 His, replicate 3
  Fi MEM 3: -0.475
[4]; AA 105 Ile
  Fi MEM AVG: 0.078
[4]; AA 105 Ile, replicate 1
  Fi MEM 1: 0.231
[4]; AA 105 Ile, replicate 2
  Fi MEM 2: 0.143
[4]; AA 105 Ile, replicate 3
  Fi MEM 3: -0.140
[4]; AA 105 Leu
  Fi MEM AVG: -0.036
[4]; AA 105 Leu, replicate 1
  Fi MEM 1: -0.102
[4]; AA 105 Leu, replicate 2
  Fi MEM 2: 0.170
[4]; AA 105 Leu, replicate 3
  Fi MEM 3: -0.177
[4]; AA 105 Lys
  Fi MEM AVG: -0.052
[4]; AA 105 Lys, replicate 1
  Fi MEM 1: -0.122
[4]; AA 105 Lys, replicate 2
  Fi MEM 2: 0.122
[4]; AA 105 Lys, replicate 3
  Fi MEM 3: -0.155
[4]; AA 105 Met
  Fi MEM AVG: -0.379
[4]; AA 105 Met, replicate 1
  Fi MEM 1: -0.840
[4]; AA 105 Met, replicate 2
  Fi MEM 2: 0.139
[4]; AA 105 Met, replicate 3
  Fi MEM 3: -0.436
[4]; AA 105 Phe
  Fi MEM AVG: -0.175
[4]; AA 105 Phe, replicate 1
  Fi MEM 1: 0.171
[4]; AA 105 Phe, replicate 2
  Fi MEM 2: -0.315
[4]; AA 105 Phe, replicate 3
  Fi MEM 3: -0.381
[4]; AA 105 Pro
  Fi MEM AVG: -0.026
[4]; AA 105 Pro, replicate 1
  Fi MEM 1: 0.015
[4]; AA 105 Pro, replicate 2
  Fi MEM 2: 0.091
[4]; AA 105 Pro, replicate 3
  Fi MEM 3: -0.184
[4]; AA 105 Ser
  Fi MEM AVG: -0.010
[4]; AA 105 Ser, replicate 1
  Fi MEM 1: 0.139
[4]; AA 105 Ser, replicate 2
  Fi MEM 2: 0.033
[4]; AA 105 Ser, replicate 3
  Fi MEM 3: -0.203
[4]; AA 105 Thr
  Fi MEM AVG: -0.084
[4]; AA 105 Thr, replicate 1
  Fi MEM 1: -0.289
[4]; AA 105 Thr, replicate 2
  Fi MEM 2: 0.235
[4]; AA 105 Thr, replicate 3
  Fi MEM 3: -0.199
[4]; AA 105 Trp
  Fi MEM AVG: -0.176
[4]; AA 105 Trp, replicate 1
  Fi MEM 1: -0.657
[4]; AA 105 Trp, replicate 2
  Fi MEM 2: 0.184
[4]; AA 105 Trp, replicate 3
  Fi MEM 3: -0.056
[4]; AA 105 Tyr
  Fi MEM AVG: 0.000
[4]; AA 105 Tyr, replicate 1
  Fi MEM 1: 0.000
[4]; AA 105 Tyr, replicate 2
  Fi MEM 2: 0.000
[4]; AA 105 Tyr, replicate 3
  Fi MEM 3: 0.000
[4]; AA 105 Val
  Fi MEM AVG: -0.088
[4]; AA 105 Val, replicate 1
  Fi MEM 1: -0.115
[4]; AA 105 Val, replicate 2
  Fi MEM 2: 0.193
[4]; AA 105 Val, replicate 3
  Fi MEM 3: -0.342
[4]; absolute fitness of TEM-1 WT, MEM, replicate 1
  WT abs Fi 1: 0.006
[4]; absolute fitness of TEM-1 WT, MEM, replicate 2
  WT abs Fi 2: -0.204
[4]; absolute fitness of TEM-1 WT, MEM, replicate 3
  WT abs Fi 3: 0.439

— PMC12274840 (The Journal of Biological Chemistry, 2025)
